Data as given in patent publication US10618916B2, “Heterocyclic compounds as immunomodulators” (Incyte Corporation, priority 2018, dated 2020).

Columns and labels:
[1] = molecular target: PD-1/PD-L1 protein/protein interaction (recombinant human PD-L1 and human PD-1) (Homo sapiens (Human), UniProt Q9NZQ7); experiment: Homogeneous Time-Resolved Fluorescence (HTRF) PD-1/PD-L1 binding assay
Method: Example A. Homogeneous Time-Resolved Fluorescence (HTRF) PD-1/PD-L1 Binding Assay
The assays were conducted in a standard black 384-well polystyrene plate with a final volume of 20 μL. Inhibitors were first serially diluted in DMSO and then added to the plate wells before the addition of other reaction components. The final concentration of DMSO in the assay was 1%. The assays were carried out at 25° C. in the PBS buffer (pH 7.4) with 0.05% Tween-20 and 0.1% BSA. Recombinant human PD-L1 protein (19-238) with a His-tag at the C-terminus was purchased from AcroBiosystems (PD1-H5229). Recombinant human PD-1 protein (25-167) with Fc tag at the C-terminus was also purchased from AcroBiosystems (PD1-H5257). PD-L1 and PD-1 proteins were diluted in the assay buffer and 10 μL was added to the plate well. Plates were centrifuged and proteins were preincubated with inhibitors for 40 minutes. The incubation was followed by the addition of 10 μL of HTRF detection buffer supplemented with Europium cryptate-labeled anti-human IgG (PerkinElmer-AD0212) specific for Fc and anti-His antibody conjugated to SureLight®-Allophycocyanin (APC, PerkinElmer-AD0059H). After centrifugation, the plate was incubated at 25° C. for 60 min. before reading on a PHERAstar FS plate reader (665 nm/620 nm ratio). Final concentrations in the assay were—3 nM PD1, 10 nM PD-L1, 1 nM europium anti-human IgG and 20 nM anti-His-Allophycocyanin. IC50 determination was performed by fitting the curve of percent control activity versus the log of the inhibitor concentration using the GraphPad Prism 5.0 software.

[2] = test system: PD-L1 aAPC/CHO-K1 cells and Jurkat-PD-1-NFAT effector cells; experiment: Nuclear factor of activated T-cells (NFAT) assay; type: cell-based; settings: Cricetulus griseus, CHO-K1
Method: Example C. Nuclear Factor of Activated T-Cells (NFAT) Assay
PD-L1 aAPC/CHO-K1 cells (Promega) were maintained in F-12 medium with addition of 10% FBS, 200 μg/ml Hygromycin B, 250 μg/ml Geneticin (G418). Jurkat-PD-1-NFAT effector cells (Promega) were cultured in RPMI 1640 medium supplemented with 10% FBS, 100 μg/ml Hygromycin B, 500 μg/ml G418. The culture media of PD-L1 aAPC/CHO-K1 cells were first replaced with assay medium (RPMI1640 medium with 1% FBS). The PD-L1 aAPC/CHO-K1 cells were then added in a white 384-well white clear bottom assay plate (CELLCOAT® Tissue Culture Plates, Greiner Bio-One) at 8000 per well in 10 μL assay medium. Test compounds were prepared by serial dilution in DMSO and 0.8 μL test compounds in DMSO were first transferred to the 384 REMP plate well (Thermofisher) by PlateMate Plus (Thermofisher) followed with addition of 50 μL plating medium. 5 μL compounds in the assay medium were transferred to the cells with 0.4% DMSO in the final assay at 2 μM. After removing the culture media, 10,000 Jurkat-PD-1-NFAT effector cells in 5 μL assay medium was dispensed into each well. The assay plate was incubated at 37° C., 5% CO2 for 24 hours. After the assay plate was equilibrated to room temp for 15 minutes, 20 µL/well of Bio-Glo™ reagent (Promega) were added. After 8 minutes incubation at room temperature, luminescence was read at with Pherastar microplate reader (BMG Labtech). The fold of induction (FOI) was calculated based on the ratio of luminescence normalized to the DMSO wells within each assay plate. The maximum percentage of induction was reported based on the ratio between the highest FOI of each compound and the maximum FOI of control compound within each assay plate. Wells with DMSO were served as the negative controls and wells containing control compound with the highest FOI were used as positive controls. EC50 determination was performed by fitting the curve of percent control activity versus the log of the compound concentration using the GraphPad Prism 6.0 software.

[3] = molecular target: PD-L1 (Homo sapiens (Human), UniProt Q9NZQ7); experiment: PD-L1 whole blood internalization assay; type: cell-based; settings: 24 HR, PD-L1 expression on CD14+ cells, human interferon γ
Method: Example D. PD-L1 Whole Blood Internalization Assay
To determine PD-L1 internalization in human whole blood, normal human blood (Biological Specialty Corp, Colmar. Pa.) was incubated in the presence or absence of a concentration range of test compounds and 1 ng/ml human interferon γ (R&D Systems Inc. Minn. […] Blood was then stained with PD-L1 (MIH1, eBioscience; or BD Biosciences San Jose, Calif.), CD14 (Life Technologies, Carlsbad, Calif.) for 30 minutes in the dark at room temperature. Whole Blood/red cells were lysed/fixed (lysis buffer BD Biosciences) for 5 minutes at 37° C. in the dark and then centrifuged at 1600 RPM for 5 minutes. Cells were resuspended in Stain Buffer (BD Bioscience, San Jose, Calif.) and transferred into 96 well round bottom plates (Corning). Cells were gated on CD14+(BD Biosciences) and PD-L1 expression determined by mean fluorescence intensity (MFI) (BD LSRFortessa™ X-20). IC50 determination was performed by fitting the curve of compound percent inhibition versus the log of the compound concentration using the GraphPad Prism 7.0 software.

[4] = test system: U2OS/PD-L1 cells and Jurkat-PD-1-SHP cells; experiment: Src homology region 2 domain-containing phosphatase (SHP) assay; type: cell-based; settings: Homo sapiens, U2OS
Method: Example B. Src Homology Region 2 Domain-Containing Phosphatase (SHP) Assay
U2OS/PD-L1 cells (DiscoveRx Corporation) were maintained in McCoy's 5A medium with addition of 10% FBS, 0.25 μg/ml Puromycin. After removing the culture media, the cell medium was replaced with assay medium (RPMI1640 medium with 1% FBS). The U2OS/PD-L1 cells were then added in 384-well black clear bottom assay plate (CELLCOAT® Tissue Culture Plates, Greiner Bio-One) at 5000 cells per well in 20 μL assay medium. Test compounds were prepared by serial dilution in DMSO and 125 nL compound were first transferred to the 384 REMP plate well (Thermofisher) by ECHO liquid handler (Labcyte) followed with addition of 27.5 μL assay medium. 5 μL/well compounds in the assay medium were transferred to the cell plate with 0.05% DMSO in the final assay at […]. Jurkat-PD-1-SHP cells (DiscoveRx Corporation) were cultured in RPMI1640 medium supplemented with 10% FBS, 250 μg/ml Hygromycin B, 500 μg/ml G418. After the replacement of culture media with assay medium, 5,000 Jurkat-PD-1-SHP cells in 20 μL were dispensed into each well. The assay plate was incubated at 37° C., 5% CO2 for 2 hours before 2.5 μL PathHunter reagent 1 (DiscoveRx Corporation) were added to each well. The assay plate was shaken for 1 min at 350 rpm in the dark followed with addition of 10 μL PathHunter reagent 2 (DiscoveRx Corporation). Chemiluminescent signal was recorded with TopCount reader (Perkin Elmer) after incubation at room temperature for 1 hour. Wells with DMSO were served as the positive controls and wells containing no cells were used as negative controls. IC50 determination was performed by fitting the curve of percentage of control activity versus the log of the compound concentration using the GraphPad Prism 6.0 software.

PD-1/PD-L1 protein/protein interaction (recombinant human PD-L1 and human PD-1), sequence (Q9NZQ7 19-238): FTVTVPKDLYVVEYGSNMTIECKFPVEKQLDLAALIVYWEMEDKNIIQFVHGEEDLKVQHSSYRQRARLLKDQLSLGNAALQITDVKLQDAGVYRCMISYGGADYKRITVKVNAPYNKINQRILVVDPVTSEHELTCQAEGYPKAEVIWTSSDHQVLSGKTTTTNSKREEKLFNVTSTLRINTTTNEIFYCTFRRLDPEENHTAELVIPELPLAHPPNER
PD-L1, sequence (Q9NZQ7 19-290): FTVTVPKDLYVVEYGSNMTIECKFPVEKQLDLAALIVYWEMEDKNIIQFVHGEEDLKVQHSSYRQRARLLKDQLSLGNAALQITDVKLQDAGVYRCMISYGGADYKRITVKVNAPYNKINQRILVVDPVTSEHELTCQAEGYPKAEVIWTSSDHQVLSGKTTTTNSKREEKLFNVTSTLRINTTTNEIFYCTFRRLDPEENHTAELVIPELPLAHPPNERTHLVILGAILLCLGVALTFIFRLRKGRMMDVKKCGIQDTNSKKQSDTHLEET

Row | Structure (SMILES) | IC50 [1] [µM] | IC50 [3] [µM] | IC50 [4] [µM] | EC50 [2] [µM]
1 | CN1CCc2c(nc(C(=O)Nc3cccc(-c4cccc(NC(=O)c5nc6c(n5C)CCN(CCC57CCC(C(=O)O)(CC5)C7)C6)c4Cl)c3C#N)n2C)C1 [Example 48, 4-(2-(2-((2-chloro-2′-cyano-3′-(1,5-dimethyl-4,5,6,7-tetrahydro-1H-imidazo[4,5-c]pyridine-2-carboxamido)-[1,1′-biphenyl]-3-yl)carbamoyl)-1-methyl-1,4,6,7-tetrahydro-5H-imidazo[4,5-c]pyridin-5-yl)ethyl)bicyclo[2.2.1]heptane-1-carboxylic acid] | ≤ 0.005 |  | ≤ 0.01 | 0.01 to 0.1
2 | Cn1c(C(=O)Nc2cccc(-c3cccc(NC(=O)c4nc5c(n4C)CCN(CC46CCC(C(=O)O)(CC4)C6)C5)c3C#N)c2Cl)nc2c1CCN(CCC13CCC(C(=O)O)(CC1)C3)C2 [Example 52, 4-((2-((3′-(5-(2-(4-carboxybicyclo[2.2.1]heptan-1-yl)ethyl)-1-methyl-4,5,6,7-tetrahydro-1H-imidazo[4,5-c]pyridine-2-carboxamido)-2′-chloro-2-cyano-[1,1′-biphenyl]-3-yl)carbamoyl)-1-methyl-1,4,6,7-tetrahydro-5H-imidazo[4,5-c]pyridin-5-yl)methyl)bicyclo[2.2.1]heptane-1-carboxylic acid] | ≤ 0.005 |  | 0.01 to 0.1 | 0.1 to 0.5
3 | Cc1c(NC(=O)c2nc3c(n2C)CCNC3)cccc1-c1cccc(NC(=O)c2nc3c(n2C)CCN(CCC24CCC(C(=O)O)(CC2)C4)C3)c1C [Example 53, 4-(2-(2-((2,2′-dimethyl-3′-(1-methyl-4,5,6,7-tetrahydro-1H-imidazo[4,5-c]pyridine-2-carboxamido)-[1,1′-biphenyl]-3-yl)carbamoyl)-1-methyl-1,4,6,7-tetrahydro-5H-imidazo[4,5-c]pyridin-5-yl)ethyl)bicyclo[2.2.1]heptane-1-carboxylic Acid] | ≤ 0.005 |  | ≤ 0.01 | 0.01 to 0.1

Second part, led by results:

Row | IC50 [1] [µM] | IC50 [3] [µM] | IC50 [4] [µM] | Structure (SMILES) | EC50 [2] [µM]
4 | ≤ 0.005 | 0.01 to 0.1 |  | Cn1c(C(=O)Nc2cccc(-c3cccc(NC(=O)c4nc5c(n4C)CCN(C4CCN(C(N)=O)CC4)C5)c3Cl)c2Cl)nc2c1CCN(CCC13CCC(C(=O)O)(CC1)C3)C2 [Example 7, 4-(2-(2-((3′-(5-(1-carbamoylpiperidin-4-yl)-1-methyl-4,5,6,7-tetrahydro-1H-imidazo[4,5-c]pyridine-2-carboxamido)-2,2′-dichloro-[1,1′-biphenyl]-3-yl)carbamoyl)-1-methyl-1,4,6,7-tetrahydro-5H-imidazo[4,5-c]pyridin-5-yl)ethyl)bicyclo[2.2.1]heptane-1-carboxylic acid] | 0.01 to 0.1
5 | ≤ 0.005 |  | ≤ 0.01 | Cc1c(NC(=O)c2nc3c(n2C)CCN(CCC24CCC(C(=O)O)(CC2)C4)C3)cccc1-c1cccc(NC(=O)c2nc3c(n2C)CCN(C)C3)c1Cl [Example 39, 4-(2-(2-((2′-chloro-3′-(1,5-dimethyl-4,5,6,7-tetrahydro-1H-imidazo[4,5-c]pyridine-2-carboxamido)-2-methyl-[1,1′-biphenyl]-3-yl)carbamoyl)-1-methyl-1,4,6,7-tetrahydro-5H-imidazo[4,5-c]pyridin-5-yl)ethyl)bicyclo[2.2.1]heptane-1-carboxylic acid] | 0.01 to 0.1
6 | ≤ 0.005 |  | ≤ 0.01 | Cn1c(C(=O)Nc2cccc(-c3cccc(NC(=O)c4nc5c(n4C)CCNC5)c3C#N)c2Cl)nc2c1CCN(CCC13CCC(C(=O)O)(CC1)C3)C2 [Example 46, 4-(2-(2-((2-chloro-2′-cyano-3′-(1-methyl-4,5,6,7-tetrahydro-1H-imidazo[4,5-c]pyridine-2-carboxamido)-[1,1′-biphenyl]-3-yl)carbamoyl)-1-methyl-1,4,6,7-tetrahydro-5H-imidazo[4,5-c]pyridin-5-yl)ethyl)bicyclo[2.2.1]heptane-1-carboxylic Acid] | 0.01 to 0.1
7 | ≤ 0.005 |  | ≤ 0.01 | Cc1c(NC(=O)c2nc3c(n2C)CCN(CCC24CCC(C(=O)O)(CC2)C4)C3)cccc1-c1cccc(NC(=O)c2nc3c(n2C)CCN(CC24CCC(C(=O)O)(CC2)C4)C3)c1C [Example 55, 4-((2-((3′-(5-(2-(4-carboxybicyclo[2.2.1]heptan-1-yl)ethyl)-1-methyl-4,5,6,7-tetrahydro-1H-imidazo[4,5-c]pyridine-2-carboxamido)-2,2′-dimethyl-[1,1′-biphenyl]-3-yl)carbamoyl)-1-methyl-1,4,6,7-tetrahydro-5H-imidazo[4,5-c]pyridin-5-yl)methyl)bicyclo[2.2.1]heptane-1-carboxylic acid] | 0.01 to 0.1
8 | ≤ 0.005 |  | ≤ 0.01 | Cc1c(NC(=O)c2nc3c(n2C)CCN(CCO)C3)cccc1-c1cccc(NC(=O)c2nc3c(n2C)CCN(CCC24CCC(C(=O)O)(CC2)C4)C3)c1C [Example 59, 4-(2-(2-((3′-(5-(2-hydroxyethyl)-1-methyl-4,5,6,7-tetrahydro-1H-imidazo[4,5-c]pyridine-2-carboxamido)-2,2′-dimethyl-[1,1′-biphenyl]-3-yl)carbamoyl)-1-methyl-1,4,6,7-tetrahydro-5H-imidazo[4,5-c]pyridin-5-yl)ethyl)bicyclo[2.2.1]heptane-1-carboxylic acid] | 0.1 to 0.5
